5 compounds from patent US12497460B2, “Anti-MSR1 antibodies and methods of use thereof” (REGENERON PHARMACEUTICALS, INC., priority 2018, dated 2025) can be followed below.

SMILES strings stand for the structures. ≈ marks a conversion by molar mass, not a printed value. Entries after “also recorded” stand apart in the source; their conditions may differ. Read-outs that look alike come from different tables or passages of the source. Marks after values point to notes of the source that are not given here.

In series [1] the test system is S. aureus NRS384. Nature of the series: Broth minimum inhibitory concentration (MIC) assay. It counts as cell-based. The conditions noted are these: S. aureus NRS384, TSB, 24h, 37° C. The protocol: To test the efficacy of rifamycin analogs of the disclosure in vitro, a broth growth inhibition assay was developed. For the assay, S. aureus NRS384 was grown in Tryptic Soy Broth (TSB) overnight, then sub-cultured 1:50 in fresh TSB and grown for an additional two hours. The culture was then pelleted via centrifugation and washed twice in PBS. The culture was then diluted to 1×10^4 cfu/mL in TSB and 50 μL of the suspension was added per well to a 96 well microtiter dish in duplicate. A dilution series of the indicated antibiotic (an analog according to the disclosure or a previously known analog Rifampicin) was added 1:1 for a final starting concentration of 1×10^−5 M with 1:3 dilutions.

Series [2] concerns intracellular S. aureus NRS384 in THP-1 macrophages. Nature of the series: Intracellular S. aureus killing assay with rifamycin analogs (Example 44). It counts as cell-based. The conditions noted are these: for intracellular S. aureus killing (in words): infected THP-1 macrophages, 2h treatment, compared to rifampicin; for Intracellular killing MIC: lowest concentration that resulted in intracellular S. aureus eradication, THP-1 macrophages. As to the method:
The rifamycin analog compounds' activity against S. aureus was tested in an intracellular “killing” assay.
THP-1 monocytic cell line was grown in media (RMPI+10% FBS+1% Penicillin/Streptomycin), then seeded at a density of 1e5 cells/well in a 96 well plate and differentiated into macrophages for three days prior to infection using 200 nM PMA. An overnight culture of S. aureus NRS384 was grown in RPMI, washed twice with PBS and resuspended at 1e7 cfu/mL in PBS. THP-1 were washed with warm media (RMPI without FBS) to remove the Penicillin/Streptomycin and then infected with the S. aureus suspension at a multiplicity of infection of 10:1 (S. aureus: macrophages). Plates were spun at 300×g for 5 minutes to synchronize adhesion of the bacteria, then incubated at 37° C. for 2 hours. Free-floating bacteria were removed by washing 2× with warm media and remaining extracellular S. aureus were killed by addition of media containing gentamicin (50 ug/mL). After 1h, media was aspirated and the indicated compound was added to infected macrophages in media containing 50 μg/mL gentamicin to prevent extracellular growth of S. aureus. After 2h, plates were washed 2× with warm RPMI without FBS, and 100 ul of THP-1 lysis buffer (0.1% Triton in PBS) was added to each well. S. aureus survival was enumerated by colony forming units through serial dilution and plating onto TSA.

Series [3] deals with Msr1^hu/hu ApoE^−/− mice, peritoneal cells. Nature of the series: Ex vivo LPS-induced cytokine production by peritoneal cells after in vivo dosing. Also noted: species or system mouse. The protocol:
(§1) To examine the anti-inflammatory effect of the anti-MSR1 antibody-steroid conjugates, an ex-vivo and in vivo LPS-induced inflammatory immune response model was performed.
(§2) Generation of a mouse inflammatory immune response model. Mice homozygously expressing human MSR1 extracellular domain in place of the mouse MSR1 extracellular domain and with a homozygous deletion of the ApoE gene were utilized (resulting mice referred to as Msr1^hu/hu ApoE^−/− mice).
(§3) Assay protocol for ex vivo LPS-induced responses. In ex vivo LPS challenge experiments, mice were intraperitoneally administered with 10 μL/g of anti-MSR1 antibody-steroid conjugates (H1H21234N-N297Q-LP13), isotype control steroid conjugate (Isotype control-LP13), unconjugated anti-MSR1 antibody (H1H21234N-N297Q) and isotype control antibodies at different time points (24, 48, and 72 hours) prior to harvesting the peritoneal cells from peritoneal cavity. […] All mice were sacrificed at 0 hour time point and peritoneal cells were obtained from the peritoneum by the peritoneal lavage technique. In brief, 5 mL of ice cold 1×PBS (ThermoFisher Scientific, Cat #20012027) containing 2% BSA (Gibco, Cat #A9576) and 0.6 mM EDTA (ThermoFisher Scientific, Cat #15575020) were injected into the peritoneal cavity using 27 g needle. […] The resuspended cells were plated at 500,000 cells per well in 24-well tissues culture plates and incubated with or without 10 ng/mL of LPS for 18 hours.
Measurement of cytokines at 18 hours post-LPS ex vivo challenge. Supernatants were collected into 96-well round bottom tissue culture plates at 18 hours post-ex vivo LPS challenge and stored at […] until further analysis. Cytokine concentrations in the supernatants were measured using a Proinflammatory Panel 1 (mouse) multiplex immunoassay kit (MesoScale Diagnostics, Cat #K15048D) according to manufacturer's instructions. Electrochemiluminescence was read on a Meso Scale Diagnostics SECTOR® instrument. Data analysis was performed using GraphPad Prism™ software. Statistical significance within the groups was determined by one-way Anova with Turkey's multiple comparison post-test (*p<0.01; **p<0.001; ***p<0.0001).

In series [4] the test system is LPS-induced IL-1β release in differentiated THP-1 cells. Nature of the series: LPS-mediated IL-1β release assay. Format: cell-based, human. The settings on record: for IC50: Homo sapiens. The protocol: To test the anti-inflammatory properties of anti-MSR1 antibody-steroid conjugates in vitro, a lipopolysaccharide (LPS)-mediated IL-1β release assay was performed. For the assay, THP-1 cells were seeded onto 96 well plates at 40,000 cells/well in media containing RPMI supplemented with 10% FBS and pencillin/streptomycinin and differentiated with 200 nM Phorbol Myristate Acetate (PMA) for 3 days. After the 3-day differentiation period, three-fold serial dilutions of antibody drug conjugates, unconjugated antibodies, or free payloads in fresh media were added to the cells at final concentration ranging from 100 nM to 0.01 nM. Media alone served as a blank control. Subsequently at 24, 48, or 72 hours later, cells were treated with 100 ng/ml LPS (InVivoGen, Cat #tlrl-eklps) for 5 hours. The cell media was then collected, and IL-1β levels were measured using a V-PLEX Proinflammatory Panel 1 human kit (Meso Scale Diagnostics, Cat #15049D-2) as per manufacturer's instructions. Subsequently, the plate was read on a Meso Scale Diagnostics instrument.
IC50 values were determined from a four-parameter logistic equation over a 10-point response curve (GraphPad Prism). All IC50 values are expressed in M (molar) concentration. The IC50 values and IL-1β amount at the maximum concentration of antibody-steroid conjugates or controls are shown in Table 22 each of the time point tested.

Series [5] has as its system Msr1^hu/hu ApoE^−/− mice, peritoneal macrophages. Nature of the series: LPS-mediated expression of CD80 on peritoneal macrophages (flow cytometry). It counts as in vivo, mouse. The settings on record: administered 2 hours before. The protocol: as §3
(§4) Assay protocol for in vivo LPS-induced responses. In in vivo LPS challenge experiments, mice were intraperitoneally administered with 10 μL/g of decreasing concentrations of anti-MSR1 antibody-steroid conjugates (H1H21234N-N297Q-LP13) and isotype control steroid conjugate (Isotype control-N297Q-LP13) at 24 hours prior to in vivo LPS challenge. PBS and free steroid P4 were intraperitoneally injected at 2 hours prior to in vivo LPS challenge. At 0 hour time point, three large drops of blood (volume ˜ 100 μL) were collected from the maxillary vein of each mouse into serum gel separator tubes. The tubes were centrifuged at 2200-2500 rpm for 15 minutes, and the serum was collected into 96-well plates for subsequent measurement of cytokines. At 18 hours post in vivo LPS challenge, the peritoneal cells were obtained from periotenal cavity as aforementioned for subsequent flow cytometry analysis.
Analysis of expression of activation markers on peritoneal macrophages after LPS ex vivo challenge. Upon collection of supernatants for cytokine analysis, the plates were washed twice with 1×PBS w/o Ca^++/Mg2^++ (ThermoFisher Scientific, Cat #14190144), and the adherent peritoneal cells were harvested by addition of 250-300 μL of cold Macrophage Detachment Solution DXF (PromoCell, Cat #C41330) for 40 minutes. The detached cells were collected into 50-mL tubes and centrifuged at 350×g for 15 minutes. After two washes with 1×PBS supplemented with 2 mM EDTA, the cells were resuspended in Cell Staining Buffer (Biolegend, #420201) and plated at 1×10^6 cells per well in a 96-well V bottom plate. […] Data were analyzed using FlowJo (Tree Star).

For series [6], the system named is Msr1^hu/hu ApoE^−/− mice. Nature of the series: In vivo LPS-induced cytokine production in serum. Also noted: species or system mouse. The conditions noted are these: 1.48 mg/kg, 2 hours before in vivo LPS. The protocol:
as §1, §2, §4

Series [7] in a line: Solubility in water of linker-payloads.
Where [8] appears, read: administered 2 hours before peritoneal cell isolation, ex vivo LPS.

In the case of `CO[C@H]1/C=C/O[C@@]2(C)Oc3c(C)c(O)c4c(=O)c(c5oc6cc(OC7CCNCC7)ccc6nc-5c4c3C2=O)NC(=O)/C(C)=C\C=C\[C@H](C)[C@H](O)[C@@H](C)[C@@H](O)[C@@H](C)[C@H](OC(C)=O)[C@@H]1C` [R14], the “S. aureus Broth MIC” value in series [1] stood at 0.041 µM. In series [2], the “intracellular S. aureus killing (in words)” value is on record as “increased intracellular S. aureus killing capacity compared to rifampicin” and the “Intracellular killing MIC” value came to 1.0E−06.

Regarding `CCCC1O[C@@H]2C[C@H]3[C@@H]4C[C@H](F)C5=CC(=O)C=C[C@]5(C)[C@@]4(F)[C@@H](O)C[C@]3(C)[C@]2(C(=O)CN)O1` (mixture of isomers) [P4, (1S,2S,4R,6R,8S,9S,11S,12R,13S,19S)-8-(2-Aminoacetyl)-12,19-difluoro-11-hydroxy-9,13-dimethyl-6-propyl-5,7-dioxapentacyclo[10.8.0.0^2,9.0^4,8.0^13,18]icosa-14,17-dien-16-one], the “Cytokine IL-6” value in series [3] (setting [8]) is given as 12.98 ± 5.8**** ng/mL. The “Cytokine KC-GRO” value in series [3] (setting [8]) is listed as 2.6 ± 1.3** ng/mL. The “Cytokine TNF-α” value in series [3] (setting [8]) is reported as 0.43 ± 0.06** ng/mL. Moreover, the “effect on ex vivo LPS-induced cytokine production (IL-6, KC-GRO, TNF-α) by peritoneal cells” value in series [3] (i.p. dosing 24, 48, 72 hours (conjugates, antibodies) or 2 hours (free steroids) before cell harvest, 10 ng/mL LPS 18 hours) is “Comparable inhibition of LPS-induced immune responses”. In addition, the “IL1beta released at max concentration tested” value in series [4] (24 hour treatment before LPS) worked out at 43.39 pg/mL; in series [4] (48 hour treatment before LPS), 9.3 pg/mL; in series [4] (72 hour treatment before LPS) it was 12.95 pg/mL. For the same compound, the IC50 worked out at 0.849 nM in series [4] (THP-1, 24-hour time point, 100 ng/ml LPS for 5 hours, read-out: IC50, inhibition of LPS-induced IL-1β secretion); 1.02 nM in series [4] (THP-1, 48-hour time point, 100 ng/ml LPS for 5 hours, read-out: IC50, inhibition of LPS-induced IL-1β secretion); 1.2 nM in series [4] (THP-1, 72-hour time point, 100 ng/ml LPS for 5 hours, read-out: IC50, inhibition of LPS-induced IL-1β secretion); 0.849 nM in series [4] (THP-1, 24 hour treatment before LPS, read-out: EC50 (the source's name)); 1.02 nM in series [4] (THP-1, 48 hour treatment before LPS, read-out: EC50 (the source's name)); 1.2 nM in series [4] (THP-1, 72 hour treatment before LPS, read-out: EC50 (the source's name)). For the same compound, the “LPS-mediated expression of CD80, pMΦ Cells” value in series [5] (hMSR1+F4/80+CD11b+ peritoneal macrophages) is reported as 54.7 ± 3.8 % relative to PBS/LPS-treatment. Further, the “LPS-mediated expression of CD80, non-pMΦ Cells” value in series [5] (hMSR1−F4/80−CD11b− cells) is 93.02 ± 4.4 % relative to PBS/LPS-treatment. Further, the “Cytokine IL-6 in serum” value in series [6] is 3.51 ± 0.7 ng/mL. The “Cytokine KC-GRO in serum” value in series [6] was found to be 4.1 ± 1.5 ng/mL. Besides, the “Cytokine TNF-α in serum” value in series [6] was 0.09 ± 0.02 ng/mL.

As for `CCCC1O[C@@H]2C[C@H]3[C@@H]4C[C@H](F)C5=CC(=O)C=C[C@]5(C)[C@@]4(F)[C@@H](O)C[C@]3(C)C2(C(=O)CNC(=O)OCc2ccc(NC(=O)[C@H](CCCNC(N)=O)NC(=O)[C@@H](NC(=O)[C@@H](CCCCNC(=O)COC3CCCCCc4c3nnn4CC3OC4OC5C(CO)OC(OC6C(CO)OC(OC7C(CO)OC(OC8C(CO)OC(OC9C(CO)OC(OC3C(O)C4O)C(O)C9O)C(O)C8O)C(O)C7O)C(O)C6O)C(O)C5O)NC(=O)CCOCCOCCOCCOCCNC(=O)CCC(=O)N3Cc4ccccc4C#Cc4ccccc43)C(C)C)cc2)O1` (stereo partly drawn) [LP14], the concentration in solution in series [7] (solubility) came to 26 µg/mL (≈ 9.64 µM).

In the case of `CO[C@H]1/C=C/O[C@@]2(C)Oc3c(C)c(O)c4c(=O)c(c5oc6cc(OCCN(C)C)ccc6nc-5c4c3C2=O)NC(=O)/C(C)=C\C=C\[C@H](C)[C@H](O)[C@@H](C)[C@@H](O)[C@@H](C)[C@H](OC(C)=O)[C@@H]1C` [R16a], the “S. aureus Broth MIC” value in series [1] was determined as 0.0015 µM. Besides, in series [2], the “intracellular S. aureus killing (in words)” value is “increased intracellular S. aureus killing capacity compared to rifampicin; also recorded: highest activity” and the “Intracellular killing MIC” value worked out at 4.0E−08.

With `CO[C@H]1/C=C/O[C@@]2(C)Oc3c(C)c(O)c4c(=O)c(c5n(C)c6cc(O)ccc6nc-5c4c3C2=O)NC(=O)/C(C)=C\C=C\[C@H](C)[C@H](O)[C@@H](C)[C@@H](O)[C@@H](C)[C@H](OC(C)=O)[C@@H]1C` [R1d, Rifamycin 4-OH-Phenol N-Methyl Analogs], the “S. aureus Broth MIC” value in series [1] is 0.37 µM. Also, in series [2], the “Intracellular killing MIC” value is given as >1.0E−06.
